From US20150217004A1, “CARBAMATE COMPOUNDS AND METHODS OF USE IN DISEASES OF THE NERVOUS SYSTEM” (priority 2012, published 2015)

Columns and labels:
BuChE = assay: In vitro autoradiography with human tissues (Alzheimer's disease or cognitively normal); format: binding; settings: 3.7 MBq, 18 hours at 37° C., maleate buffer pH 6.8, FIG. 3
Procedure: Human tissue from Alzheimer's disease or cognitively normal individuals was obtained from the Maritime Brain Tissue Bank (Halifax, Canada). These tissues were adjacent […] sections through areas such as the orbitofrontal cortex. The tissues were mounted on glass slides, in maleate buffer pH 6.8, and gently heated on a slide warmer until firmly adhered. The mounted tissue was rehydrated twice for 5 min, in maleate buffer pH 6.8, before placed in a coplin jar. Nine sections occupied each jar. 25 mL of maleate buffer pH 6.8 containing Phenyl 4-([^123I]iodo)phenylcarbamate (3.7 MBq) was added to the coplin jar and the tissue incubated for 18 hours at 37° C. with gentle agitation. At the completion of incubation, the tissue was rinsed twice for 1 min in distilled water and the slides dried on a slide wanner. The tissue was exposed to a high resolution phosphorimaging screen (GE Healthcare) for 22.5 hours. The screen was scanned with a typhoon 9400 imager (GE Healthcare) to produce the autoradiogram. Image contrast was adjusted with Adobe Photoshop CS5.

human recombinant AChE = human recombinant AChE (Homo sapiens, UniProt P22303); assay: Esterase activity assay (Ellman), enzyme deactivation over time, AChE; format: biochemical; settings: FIG. 2
human recombinant AChE, sequence (P22303 32-614): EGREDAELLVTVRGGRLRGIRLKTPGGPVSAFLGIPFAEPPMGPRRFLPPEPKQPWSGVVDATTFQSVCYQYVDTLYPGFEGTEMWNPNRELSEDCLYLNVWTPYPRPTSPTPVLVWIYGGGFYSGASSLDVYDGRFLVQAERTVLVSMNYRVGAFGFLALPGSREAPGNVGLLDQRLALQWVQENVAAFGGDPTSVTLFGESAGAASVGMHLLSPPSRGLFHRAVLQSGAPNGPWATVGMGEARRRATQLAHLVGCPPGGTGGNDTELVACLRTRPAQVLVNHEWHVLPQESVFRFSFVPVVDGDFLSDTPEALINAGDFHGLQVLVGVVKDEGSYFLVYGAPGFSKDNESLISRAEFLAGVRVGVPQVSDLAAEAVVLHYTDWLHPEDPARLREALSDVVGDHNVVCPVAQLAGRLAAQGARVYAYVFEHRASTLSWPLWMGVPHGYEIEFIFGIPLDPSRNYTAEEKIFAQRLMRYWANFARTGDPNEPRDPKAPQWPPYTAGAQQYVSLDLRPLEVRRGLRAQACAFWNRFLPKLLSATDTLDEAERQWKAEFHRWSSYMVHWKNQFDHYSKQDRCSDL
Procedure: (§1) The ability of the compounds to inhibit cholinesterases was evaluated by Ellman's spectrophotometric method (Ellman, G. L., Courtney, K. D., Andres, V. Jr. and Featherstone, R. M. A new and rapid colorimetric determination of acetylcholinesterase activity. Biochemical Pharmacology, 7, 88-95 (1961)) using human recombinant AChE and. acetylthiocholine as the substrate, and human serum BuChE with butyrylthiocholine as the substrate.
(§2) To test for enzyme deactivation over time, loss of enzyme activity was monitored. Briefly, 1.35 mL of buffered DTNB solution (pH 8.0), 0.05 mL of enzyme (0.03 units of human recombinant AChE or 0.05 units of purified human serum BuChE in 0.1% aqueous gelatin containing 0.01% sodium azide) and 0.05 mL of the carbamate dissolved in 50% aqueous acetonitrile at 0.5-5 mM, depending on solubility, were combined in a stoppered cuvette of 1 cm path length. After mixing and bringing the absorbance to zero, 0.05 mL of 4.8 mM aqueous acetyl- or butyrylthiocholine substrate solution was added to the cuvette after incubation of the enzyme with carbamate and buffered DTNB for periods of 30 min or longer. A zero-time sample was also obtained by adding enzyme last to initiate reaction and the second-order rate constants for enzyme deactivation (ka values) were determined. The ka value was calculated by plotting ln (e0/et)/[I] against time, where e0 is the enzymatic activity at time zero (without preincubation of enzyme and inhibitor), et is the enzymatic activity at time t min of preincubation, and [I] is the molar concentration of inhibitor. The slope of this plot gave the second-order rate constant. Experiments were generally done at least in triplicate and the values averaged.

human serum BuChE = target: T1, human serum BuChE (Homo sapiens, UniProt P06276); assay: Esterase activity assay (Ellman), enzyme deactivation over time, BuChE; format: biochemical; settings: FIG. 2
T1 construct: 0.05 units of purified human serum BuChE; from tissue; host or cells: human serum
T1 sequence (P06276 29-602): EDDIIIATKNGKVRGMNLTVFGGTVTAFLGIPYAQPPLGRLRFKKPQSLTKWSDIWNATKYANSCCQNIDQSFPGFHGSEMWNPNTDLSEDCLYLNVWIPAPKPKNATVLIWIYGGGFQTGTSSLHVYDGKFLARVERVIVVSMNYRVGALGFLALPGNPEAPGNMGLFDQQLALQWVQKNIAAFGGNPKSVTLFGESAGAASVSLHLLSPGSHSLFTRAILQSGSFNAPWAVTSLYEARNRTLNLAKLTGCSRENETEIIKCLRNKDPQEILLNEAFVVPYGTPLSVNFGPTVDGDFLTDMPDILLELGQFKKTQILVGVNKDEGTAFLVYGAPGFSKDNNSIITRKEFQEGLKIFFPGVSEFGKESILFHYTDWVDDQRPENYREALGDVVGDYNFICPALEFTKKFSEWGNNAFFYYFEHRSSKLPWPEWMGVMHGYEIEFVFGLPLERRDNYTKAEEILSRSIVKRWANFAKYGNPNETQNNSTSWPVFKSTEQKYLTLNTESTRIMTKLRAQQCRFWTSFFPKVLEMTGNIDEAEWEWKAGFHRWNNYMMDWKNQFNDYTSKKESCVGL
Procedure: as §1, §2

Question: Which melting point does the source give for O=C(Nc1ccc(F)cc1)Oc1ccccc1 here?
Answer: Its melting point is 160 to 161 °C.

Question: With O=C(Nc1ccc([123I])cc1)Oc1ccccc1 [Phenyl 4-([^123I]iodo)phenylcarbamate] as the compound, how does the “autoradiography: distinction of normal, normal-with-Aβ-plaques and AD brain tissue” value (BuChE) read?
Answer: The value was “normal-with-Aβ-plaques and AD brain tissue can be distinguished”.

Question: Which results are given for O=C(Nc1ccc(I)cc1)Oc1ccccc1 [phenyl 4-(iodo)phenylcarbamate, Phenyl 4-(iodo)phenylcarbamate]?
Answer: effect on esterase activity (inhibition) (human recombinant AChE): clearly has inhibitory effects; persistence of interaction (ligand bound to enzyme) (human recombinant AChE): persisted for hours; rate of enzymatic deactivation (human recombinant AChE): proceeded rapidly; effect on esterase activity (inhibition) (human serum BuChE): clearly has inhibitory effects; persistence of interaction (ligand bound to enzyme) (human serum BuChE): persisted for hours; rate of enzymatic deactivation (human serum BuChE): proceeded rapidly
